The values that follow are results of earlier work, collected in patent US20140256761A1, “ENHANCED ARTEMISININ-BASED COMBINATION THERAPY FOR TREATING PARASITIC MEDIATED DISEASE” (priority 2009, published 2014).

The conditions of data set [1]: in water or oils.
For data set [2] the following is noted: generally considered.
For data set [3] the following is noted: in vivo.

With `C[C@@H]1CC[C@H]2[C@@H](C)C(=O)O[C@@H]3O[C@@]4(C)CC[C@@H]1[C@]32OO4` [artemisinin], in data set [1], the solubility result is “sparingly soluble”.
As for `C[C@H]1[C@H](OC(=O)CCC(=O)O)O[C@@H]2O[C@@]3(C)CC[C@H]4[C@H](C)CC[C@@H]1[C@@]24OO3` [artesunate, 3R,5aS,6R,8aS,9R,10S,12R,12aR)-Decahydro-3,6,9-trimethyl-3,12-epoxy-12H-pyrano(4,3-j)-1,2-benzodioxepin-10-ol hydrogen succinate], the solubility entry in data set [1] is “water-soluble”.
On to `CO[C@H]1O[C@@H]2O[C@@]3(C)CC[C@H]4[C@H](C)CC[C@@H]([C@H]1C)[C@@]24OO3` [artemether, (+)-(3-alpha,5a-beta,6-beta,8a-beta, 9-alpha,12-beta,12aR)-decahydro-10-methoxy-3,6,9-trimethyl-3,12-epoxy-12H-pyrano(4,3-j)-1,2-benzodioxepin], for which the solubility result in data set [1] is “lipid-soluble”.
On to `COc1ccc2cc3[n+](cc2c1OC)CCc1cc2c(cc1-3)OCO2` [Berberine, (5,6-Dihydro-9,10-dimethoxybenzo[g]-1,3-benzodioxolo[5,6-a]quinolizinium)], for which the toxicity entry in data set [2] is “non-toxic”.
On to `COc1cc(NC(C)CCCN)c2ncccc2c1` (centres unmarked) [Primaquine], for which the “absorption from the gastro-intestinal tract” value in data set [3] is reported as “readily absorbed”.
